“Also recorded” adds a separate entry of the source.

This is an account of results in patent US20100104644A1, “Compositions and Methods for Treating or Preventing Ophthalmic Disease” (University of Florida Research Foundation, Inc., priority 2006, published 2010).

The subject of assay [1] is purified wild-type (WT) opsin. The assay can be described thus: Opsin regeneration: pigment formation of purified WT opsin with 11-cis-retinal in the presence of compound. The assay is classed as biochemical. The settings on record: for inhibition of pigment formation / binding of 11-cis-retinal to opsin: in vitro.
For assay [2], the system named is purified wt (wild-type) opsin. The assay can be described thus: 500 nm absorbing pigment formation on addition of compound alone to purified opsin. The settings on record: compound added to purified WT opsin without 11-cis-retinal. The assay is classed as biochemical.
Another assay deals with P23H opsin. Briefly: P23H yield in stable cells expressing opsin treated with compound. The assay is classed as cell-based. The method, then:
Stable cell lines expressing opsin protein were generated using the Flp-In T-Rex system. The stable cells were grown in DMEM high glucose media supplemented with 10% (v/v) fetal bovine serum, antibiotic/antimycotic solution, […] blasticidin and hygromycin at 37° C. in presence of 5% CO2. For all the experiments the cells were allowed to reach confluence and were induced to produce opsin with 1 μg/ml tetracycline after change of media and then compounds were added. The plates were incubated for 48 hours after which the cells were harvested.
Proteins were separated on SDS-PAGE gels and western blotted as described in Noorwez et al. (2004).

Consider `CC(=O)c1c(C)n[nH]c1C` [Compound 1, 1-(3,5-dimethyl-1H-pyrazol-4-yl)ethanone], for which, in assay [1] (2 mM and 5 mM concentrations), the “inhibition of pigment formation of WT opsin with 11-cis-retinal” value is given as “inhibited”. In addition, the “inhibition of pigment formation / binding of 11-cis-retinal to opsin” value in assay [1] (listed as SN 10011) was “inhibits the binding of 11-cis-retinal to opsin in vitro”; in assay [1] (listed as SN10011) it was “reversibly inhibits binding of 11-cis-retinal; also recorded: significant effect on inhibition of pigment formation”. For the same compound, the “formation of 500 nm absorbing pigment by the compound with opsin” value in assay [2] (listed as SN10011) is on record as “No pigment was formed; also recorded: no 500 nm absorbing pigment was generated”. Also, the “% Increase in P23H Yield” value is 31% in the assay on P23H opsin (Table 1) and 30 ± 5% with P23H opsin (Table 2, with spread).
In the case of `N#Cc1cn(Cc2ccco2)c(=O)[nH]c1=O` [Compound 2, 1-furan-2-ylmethyl-2,4-dioxo-1,2,3,4-tetrahydro-pyrimidine-5-carbonitrile], the “% Increase in P23H Yield” value was found to be 43% in the assay with P23H opsin (Table 1) and 40 ± 7% in the assay with P23H opsin (Table 2, with spread).
Take `O=[PH](O)c1ccccc1` [Compound 3, phenyl-phosphinic acid]: the “% Increase in P23H Yield” value is given as 32% in the assay with P23H opsin (Table 1) and 40 ± 3% in the assay with P23H opsin (Table 2, with spread).
On to `Cc1cc([N+](=O)[O-])ccn1` [Compound 4, 2-methyl-4-nitro-pyridine], for which the “% Increase in P23H Yield” value with P23H opsin (Table 1) turned out to be 24%; in the assay with P23H opsin (Table 2, with spread) it was 25 ± 8%.
On to `O=C1NC(CCO)C(=O)NC1CCO` (stereo not shown) [Compound 5, 3,6-bis-(2-hydroxyethy)-piperazine-2,5-dione], for which the “% Increase in P23H Yield” value was 15% in the assay on P23H opsin (Table 1) and 30 ± 10% in the assay on P23H opsin (Table 2, with spread).
The like results for `CC(C)N(CC#N)C(C)C` [Compound 6, diisopropylaminoacetonitrile] were, in that order, 28% and 25 ± 3%.
`N#Cc1ccc2c(c1)OCO2` [Compound 27009, 3,4-Methylenedioxybenzonitrile]: the “% Increase in P23H Yield” value in the assay on P23H opsin (Table 2, with spread) amounted to 20 ± 5%.
The same measure, in the same setting: the same measure for `Cn1cc(C(N)=O)ccc1=N` [Compound 66688, 6-imino-1-methyl-1,6-dihydro-3-pyridinecarboxamine]: 40 ± 9%; for `Nn1nnc2ccccc21` [Compound 114498, 1H-1,2,3-benzotriazol-1-amine]: 30 ± 6%.
On to `Oc1ccccc1C=Nn1cnnc1` [Compound 121968, 4-Salicylideneamino-1,2,4-triazol], for which the “% Increase in P23H Yield” value in the assay with P23H opsin (Table 2, with spread) turned out to be 29 ± 5%.
For the compound `CC(=O)/C=C/C1=C(C)CCCC1(C)C` [β-ionone, reference compound], the “inhibition of pigment formation / binding of 11-cis-retinal to opsin” value in assay [1] was “inhibit binding of retinal to the site; also recorded: inhibited opsin regeneration in a dose dependent manner”. In addition, the “formation of 500 nm absorbing pigment by the compound with opsin” value in assay [2] is “does not form a light absorbing pigment with opsin; also recorded: does not itself form a 500 nm absorbing pigment with opsin; also recorded: no 500 nm absorbing pigment was formed”.
